Assay results published in patent publication US20230416227A1, “PLASMA KALLIKREIN INHIBITORS” (Merck Sharp & Dohme LLC, priority 2020, published 2023).
pIC50: −log10 of the molar value.

Legend:
[1] = molecular target: T1, Human plasma kallikrein (Homo sapiens, UniProt P03952); experiment: Plasma Kallikrein Assay; assay type: biochemical; details: purified Human plasma kallikrein 0.5 nM, substrate Acetyl-K-P-R-AFC, pH 7.4
T1 construct: yields a heavy chain (371 amino acids) and a light chain (248 amino acids); purchased Enzyme Research Laboratories
T1 sequence (P03952 391-638 limits assumed): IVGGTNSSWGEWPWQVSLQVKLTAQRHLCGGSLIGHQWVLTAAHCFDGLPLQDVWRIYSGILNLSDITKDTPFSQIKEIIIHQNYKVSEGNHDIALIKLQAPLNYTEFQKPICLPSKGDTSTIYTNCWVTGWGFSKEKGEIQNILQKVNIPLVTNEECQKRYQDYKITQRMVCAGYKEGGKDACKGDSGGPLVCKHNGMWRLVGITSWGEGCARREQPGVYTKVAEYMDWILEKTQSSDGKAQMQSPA
T1 sequence (P03952 20-390 partner limits assumed): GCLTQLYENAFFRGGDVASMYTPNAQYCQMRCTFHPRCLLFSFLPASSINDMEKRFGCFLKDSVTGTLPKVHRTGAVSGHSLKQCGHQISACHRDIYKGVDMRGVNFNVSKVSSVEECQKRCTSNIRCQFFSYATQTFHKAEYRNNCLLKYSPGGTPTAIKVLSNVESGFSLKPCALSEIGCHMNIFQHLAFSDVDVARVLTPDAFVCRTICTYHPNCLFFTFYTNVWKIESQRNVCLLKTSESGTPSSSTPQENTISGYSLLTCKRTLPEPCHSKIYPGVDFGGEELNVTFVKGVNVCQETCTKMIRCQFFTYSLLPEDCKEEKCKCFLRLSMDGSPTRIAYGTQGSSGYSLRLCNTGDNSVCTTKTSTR

[2] = molecular target: human factor XIa (Homo sapiens, UniProt P03951); experiment: Factor XIa Assay; assay type: biochemical; details: human factor XIa 0.04 nM, substrate GPR-AFC, 30 min pre-incubation at 25° C., pH 7.4; read-out: FXIa IC50
Chain of human factor XIa (P03951 388-625 limits assumed): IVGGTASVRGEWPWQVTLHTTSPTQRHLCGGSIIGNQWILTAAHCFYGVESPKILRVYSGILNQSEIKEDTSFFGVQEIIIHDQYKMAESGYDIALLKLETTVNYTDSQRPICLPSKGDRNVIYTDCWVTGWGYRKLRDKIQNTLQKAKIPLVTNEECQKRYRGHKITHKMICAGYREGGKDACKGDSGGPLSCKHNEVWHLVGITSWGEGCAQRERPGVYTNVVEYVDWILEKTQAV
Chain of human factor XIa (P03951 19-387 partner limits assumed): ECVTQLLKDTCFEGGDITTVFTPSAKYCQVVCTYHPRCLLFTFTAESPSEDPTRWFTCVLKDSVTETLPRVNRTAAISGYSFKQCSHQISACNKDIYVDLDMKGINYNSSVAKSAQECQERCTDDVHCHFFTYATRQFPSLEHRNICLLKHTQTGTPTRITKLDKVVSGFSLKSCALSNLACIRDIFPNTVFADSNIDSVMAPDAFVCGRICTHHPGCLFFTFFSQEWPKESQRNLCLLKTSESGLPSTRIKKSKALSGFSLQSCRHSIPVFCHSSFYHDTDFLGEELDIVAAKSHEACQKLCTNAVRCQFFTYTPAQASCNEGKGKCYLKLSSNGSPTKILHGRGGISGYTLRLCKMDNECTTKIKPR
Procedure: The effectiveness of a compound of the present invention as an inhibitor of Coagulation factor XIa can be determined using a relevant purified serine protease, and an appropriate synthetic substrate. The rate of hydrolysis of the chromogenic or fluorogenic substrate by the relevant serine protease was measured both in the absence and presence of compounds of the present invention. Assays were conducted at rt or at 37° C. […] A decrease in the rate of fluorescence change in the presence of inhibitor is indicative of enzyme inhibition. Such methods are known to one skilled in the art. The results of this assay are expressed as the half-maximal inhibitory concentrations (IC50), or the inhibitory constant, Ki.
Compounds were pre-incubated for 30 min at 25° C. with human (0.04 nM) factor XIa in 50 mM HEPES buffer with 150 mM sodium chloride, 5 mM calcium chloride, 0.1% PEG 8000, pH 7.4. factor XIa enzymatic activity was determined by addition of the substrate glycine-proline-arginine-7-amido-4-trifluoromethylcoumarin (GPR-AFC) and measurement of the fluorescence at 400/505 nm after a 60 min incubation at 25° C. The % inhibition for each data point was calculated from the data and analyzed using the log (inhibitor) vs. response four parameters equation to determine the half-maximal inhibitory concentrations (IC50). The IC50 were converted to equilibrium inhibitory constants (Ki) using the Cheng-Prusoff equation.

Structure (SMILES)	pIC50 [1]	pIC50 [2]
CC(c1cnc(N2CC[C@H]2CN2C[C@@H](O)[C@@H](O)C2)nc1)n1cc(NC(=O)c2cncc(-c3c(C(F)F)ccc(Cl)c3F)n2)cn1 (stereo partly drawn) [Example 167, 6-(3-Chloro-6-(difluoromethyl)-2-fluorophenyl)-N-(1-(1-(2-((S)-2-(((3R,4S)-3,4-dihydroxypyrrolidin-1-yl)methyl)azetidin-1-yl)pyrimidin-5-yl)ethyl)-1H-pyrazol-4-yl)pyrazine-2-carboxamide]	9.00	5.23
C[C@@H](c1cnc(N2C[C@@H]3C[C@@H]3[C@@H]2CO)nc1)n1cc(NC(=O)c2cncc(-c3c(C(F)F)ccc(Cl)c3F)n2)cn1 (single isomer, unassigned) [Example 71, 6-(3-Chloro-6-(difluoromethyl)-2-fluorophenyl)-N-(1-((S or R)-1-(2-((1S,2R,5R or 1R,2S,5S)-2-(hydroxymethyl)-3-azabicyclo[3.1.0]hexan-3-yl)pyrimidin-5-yl)ethyl)-1H-pyrazol-4-yl)pyrazine-2-carboxamide]	8.60	5.65
CC(c1cnc(N2CC[C@H]2CN2CC(O)(C(C)C)C2)nc1)n1cc(NC(=O)c2cncc(-c3c(C(F)F)ccc(Cl)c3F)n2)cn1 (stereo partly drawn) [Example 173, 6-(3-Chloro-6-(difluoromethyl)-2-fluorophenyl)-N-(1-(1-(2-((S)-2-((3-hydroxy-3-isopropylazetidin-1-yl)methyl)azetidin-1-yl)pyrimidin-5-yl)ethyl)-1H-pyrazol-4-yl)pyrazine-2-carboxamide]	9.00	5.05
CC(c1cnc(N2Cc3cnn(C)c3C2)nc1)n1cc(NC(=O)c2cncc(-c3c(C(F)F)ccc(Cl)c3F)n2)cn1 (stereo not drawn) [Example 94, 6-(3-Chloro-6-(difluoromethyl)-2-fluorophenyl)-N-(1-(1-(2-(1-methyl-4,6-dihydropyrrolo[3,4-c]pyrazol-5(1H)-yl)pyrimidin-5-yl)ethyl)-1H-pyrazol-4-yl)pyrazine-2-carboxamide]	7.70	5.08
CC(c1cnc(N2CC[C@H]2[C@@H](C)N2C[C@@H](O)[C@H](O)C2)nc1)n1cc(NC(=O)c2cncc(-c3c(C(F)F)ccc(Cl)c3F)n2)cn1 (stereo partly drawn) [Example 188, 6-(3-Chloro-6-(difluoromethyl)-2-fluorophenyl)-N-(1-(1-(2-((S)-2-((R)-1-((3R,4R)-3,4-dihydroxypyrrolidin-1-yl)ethyl)azetidin-1-yl)pyrimidin-5-yl)ethyl)-1H-pyrazol-4-yl)pyrazine-2-carboxamide]	8.49	5.48
C[C@@H](c1cnc(N2C[C@@H]3C[C@@H]3[C@@H]2C#N)nc1)n1cc(NC(=O)c2cncc(-c3c(C(F)F)ccc(Cl)c3F)n2)cn1 [Example 199, 6-(3-chloro-6-(difluoromethyl)-2-fluorophenyl)-N-(1-((S)-1-(2-((1S,2R,5R)-2-cyano-3-azabicyclo[3.1.0]hexan-3-yl)pyrimidin-5-yl)ethyl)-1H-pyrazol-4-yl)pyrazine-2-carboxamide]	8.82	5.32
CC(c1cnc(N2CC[C@H]2CN2CCC(C)(O)C2)nc1)n1cc(NC(=O)c2cncc(-c3c(C(F)F)ccc(Cl)c3F)n2)cn1 (stereo partly drawn) [Example 166, 6-(3-Chloro-6-(difluoromethyl)-2-fluorophenyl)-N-(1-(1-(2-((2S)-2-((3-hydroxy-3-methylpyrrolidin-1-yl)methyl)azetidin-1-yl)pyrimidin-5-yl)ethyl)-1H-pyrazol-4-yl)pyrazine-2-carboxamide]	9.15	5.24
COc1ccc(-n2cnnn2)c(-c2cncc(C(=O)Nc3cnn(C(C)c4cnc(N5CCC5)nc4)c3)n2)c1 (single isomer, unassigned) [Example 60, (S or R)-N-(1-(1-(2-(Azetidin-1-yl)pyrimidin-5-yl)ethyl)-1H-pyrazol-4-yl)-6-(5-methoxy-2-(1H-tetrazol-1-yl)phenyl)pyrazine-2-carboxamide]	7.33	6.14
O=C(Nc1cnn(C2CCc3cc(N4CCC4)ncc32)c1)c1cncc(-c2c(C(F)F)ccc(Cl)c2F)n1 (single isomer, unassigned) [Example 119, (R or S)-N-(1-(3-(Azetidin-1-yl)-6,7-dihydro-5H-cyclopenta[c]pyridin-7-yl)-1H-pyrazol-4-yl)-6-(3-chloro-6-(difluoromethyl)-2-fluorophenyl)pyrazine-2-carboxamide]	7.84	5.45

Results, then the compound that gave them:

pIC50 [1]	pIC50 [2]	Structure (SMILES)
7.76	6.17	CS(=O)(=O)c1ccc(Cl)c(F)c1-c1cncc(C(=O)Nc2cnn(Cc3cnc(N4CCC4)nc3)c2)n1 [Example 207, N-(1-((2-(Azetidin-1-yl)pyrimidin-5-yl)methyl)-1H-pyrazol-4-yl)-6-(3-chloro-2-fluoro-6-(methylsulfonyl)phenyl)pyrazine-2-carboxamide]
8.14	5.73	O=C(Nc1cnn(Cc2cnc(N3CCC3)cn2)c1)c1cncc(-c2c(C(F)F)ccc(Cl)c2F)n1 [Example 13, N-(1-((5-(Azetidin-1-yl)pyrazin-2-yl)methyl)-1H-pyrazol-4-yl)-6-(3-chloro-6-(difluoromethyl)-2-fluorophenyl)pyrazine-2-carboxamide]
8.11	5.66	CC(c1cnc(N2CCC2)cn1)n1cc(NC(=O)c2cncc(-c3c(C(F)F)ccc(Cl)c3F)n2)cn1 (single isomer, unassigned) [Example 30, (R or S)-N-(1-(1-(5-(azetidin-1-yl)pyrazin-2-yl)ethyl)-1H-pyrazol-4-yl)-6-(3-chloro-6-(difluoromethyl)-2-fluorophenyl)pyrazine-2-carboxamide]
8.28	6.19	Cc1nc(Cn2cc(NC(=O)c3cncc(-c4c(C(F)F)ccc(Cl)c4F)n3)cn2)cnc1N1CCC1 [Example 10, N-(1-((5-(Azetidin-1-yl)-6-methylpyrazin-2-yl)methyl)-1H-pyrazol-4-yl)-6-(3-chloro-6-(difluoromethyl)-2-fluorophenyl)pyrazine-2-carboxamide]
7.28	5.85	O=C(Nc1cnn([C@H](CO)c2cnc(N3CCC3)nc2)c1)c1cncc(-c2c(C(F)F)ccc(Cl)c2F)n1 (single isomer, unassigned) [Example 7]
7.59	5.52	C[C@H](c1cnc(N2CCC2)nc1)n1cc(NC(=O)c2cncc(-c3c(C(F)(F)F)ccc(Cl)c3F)n2)cn1 (single isomer, unassigned) [Example 54]
8.43	6.10	Cc1nc(C(C)n2cc(NC(=O)c3cncc(-c4c(C(F)F)ccc(Cl)c4F)n3)cn2)cnc1N1CCC1 (single isomer, unassigned) [Example 40, (R or S)-N-(1-(1-(5-(azetidin-1-yl)-6-methylpyrazin-2-yl)ethyl)-1H-pyrazol-4-yl)-6-(3-chloro-6-(difluoromethyl)-2-fluorophenyl)pyrazine-2-carboxamide]
7.51	5.12	C[C@@H](c1cnc(N2CC(C)(F)C2)nc1)n1cc(NC(=O)c2cncc(-c3c(C(F)F)ccc(Cl)c3F)n2)cn1 [Example 101, (S)-6-(3-Chloro-6-(difluoromethyl)-2-fluorophenyl)-N-(1-(1-(2-(3-fluoro-3-methylazetidin-1-yl)pyrimidin-5-yl)ethyl)-1H-pyrazol-4-yl)pyrazine-2-carboxamide]
8.25	5.53	O=C(Nc1cnn(Cc2cnc(N3CC4CC4C3CO)nc2)c1)c1cncc(-c2c(C(F)F)ccc(Cl)c2F)n1 (single isomer, unassigned) [Example 77, 6-(3-Chloro-6-(difluoromethyl)-2-fluorophenyl)-N-(1-((2-((1R,2S,5S or 1S,2R,5R)-2-(hydroxymethyl)-3-azabicyclo[3.1.0]hexan-3-yl)pyrimidin-5-yl)methyl)-1H-pyrazol-4-yl)pyrazine-2-carboxamide]
7.77	6.01	O=C(Nc1cnn(C2(c3cnc(N4CCC4)nc3)CC2)c1)c1cncc(-c2c(C(F)F)ccc(Cl)c2F)n1 [Example 21, N-(1-(1-(2-(Azetidin-1-yl)pyrimidin-5-yl)cyclopropyl)-1H-pyrazol-4-yl)-6-(3-chloro-6-(difluoromethyl)-2-fluorophenyl)pyrazine-2-carboxamide]
8.28	5.29	Cc1nc(N2CCC2)ccc1Cn1cc(NC(=O)c2cncc(-c3c(C(F)F)ccc(Cl)c3F)n2)cn1 [Example 9, N-(1-((6-(Azetidin-1-yl)-2-methylpyridin-3-yl)methyl)-1H-pyrazol-4-yl)-6-(3-chloro-6-(difluoromethyl)-2-fluorophenyl)pyrazine-2-carboxamide]
7.95	5.14	C[C@H](O)[C@H]1[C@H]2C[C@H]2CN1c1ncc(Cn2cc(NC(=O)c3cncc(-c4c(C(F)F)ccc(Cl)c4F)n3)cn2)cn1 [Example 84, 6-(3-Chloro-6-(difluoromethyl)-2-fluorophenyl)-N-(1-((2-((1S,2R,5R)-2-((S)-1-hydroxyethyl)-3-azabicyclo[3.1.0]hexan-3-yl)pyrimidin-5-yl)methyl)-1H-pyrazol-4-yl)pyrazine-2-carboxamide]
